For experiment [1], the target named is T1, SARS-CoV-2 PLpro (nsp3 1564–1878) (Severe acute respiratory syndrome coronavirus 2, UniProt P0DTD1). The experiment in a line: biochemical. The arrangement: FRET-quenched peptide (Pro3) cleavage by PLpro, 10 min pre-incubation, slope over 20 min, normalised to no-compound control. As to conditions: low concentration screen, read-out: % of control remaining.
Method: The plates were organized with columns 3–22 containing the compounds; the remaining columns were used for reaction controls including substrate only and substrate with enzyme but no compound (Figure 3Aii). The PLpro enzyme was pre-incubated with the compounds for 10 min, and then the reaction was initiated by the addition of substrate. […] We incubated the inhibitors with PLpro before the enzymatic reaction so that the slow-binding inhibitors will not be missed out [21]. […] Fluorescence was read on a Spark multimode microplate reader (Tecan) with an excitation wavelength at 330 nm and emission wavelength at 420 nm. […] An amount of 5 µl of the enzyme was pre-incubated with compounds for 10 min before the addition of 15 µl substrate. Fluorescence was monitored at 2 min for 20 min with 3 min intervals giving a total of seven readings.

Experiment [2] has as its target T1, SARS-CoV-2 PLpro (nsp3 1564–1878). The experiment in a line: biochemical. The arrangement: FRET-quenched peptide (Pro3) cleavage by PLpro, 10 min pre-incubation, slope over 20 min, normalised to no-compound control. As to conditions: high concentration screen, read-out: % of control remaining.

The values that follow come from PMC8286840, “Identifying SARS-CoV-2 antiviral compounds by screening for small molecule inhibitors of Nsp3 papain-like protease” (Biochemical Journal, 2021).

Counter-ions that a name gives are not always drawn. Like-named read-outs stand apart in the source and are kept apart here.

Regarding `CC(C)(C)n1nc(-c2ccc(Cl)cc2)c2c(N)ncnc21` [PP 2 - 3-(4-chlorophenyl) 1-(1,1-dimethylethyl)-1H-pyrazolo[3,4-d]pyrimidin-4-amine], the remaining activity at 1.25 µM in experiment [1] (Well no.=2428) came out at 98.1%. The remaining activity at 3.75 µM in experiment [2] (Well no.=2428) amounted to 101%.

On to `Nc1ncnc2c1c(-c1cnc3[nH]ccc3c1)nn2C1CCCC1` [PP-121], for which the remaining activity at 1.25 µM in experiment [1] (Well no.=4958) came to 91%. Besides, the remaining activity at 3.75 µM in experiment [2] (Well no.=4958) worked out at 92.2%.

Consider `Cc1nc(N=Nc2ccc(S(=O)(=O)O)cc2S(=O)(=O)O)c(COP(=O)(O)O)c(C=O)c1O` [PPADS], for which the remaining activity at 1.25 µM in experiment [1] (Well no.=1217) is 102%. Moreover, the remaining activity at 3.75 µM in experiment [2] (Well no.=1217) was determined as 101%.

In the case of `Cc1nc(N=Nc2cc(S(=O)(=O)O)c3cc([N+](=O)[O-])cc(S(=O)(=O)O)c3c2)c(COP(=O)(O)O)c(C=O)c1O` [PPNDS tetrasodium], the remaining activity at 1.25 µM in experiment [1] (Well no.=1048) was 102%. Moreover, in experiment [2] (Well no.=1048), the remaining activity at 3.75 µM amounted to 103%.

Consider `O=C(OCCN1CCOCC1)C1(c2ccccc2)CCCCC1` [PRE-084], for which the remaining activity at 1.25 µM in experiment [1] (Well no.=1000) was 98.1%. Moreover, the remaining activity at 3.75 µM in experiment [2] (Well no.=1000) turned out to be 100%.

For the compound `COCC1(CO)C(=O)C2CCN1CC2` (stereo not drawn) [PRIMA-1Met], the remaining activity at 1.25 µM in experiment [1] (Well no.=6212) was 101%. Further, the remaining activity at 3.75 µM in experiment [2] (Well no.=6212) turned out to be 99.5%.

Turning to `O=C1C2CCN(CC2)C1(CO)CO` [PRIMA-1], in experiment [1] (Well no.=6486), the remaining activity at 1.25 µM came out at 96.7%. The remaining activity at 3.75 µM in experiment [2] (Well no.=6486) amounted to 97.6%.

For the compound `N#Cc1cc(CN2CCC(Nc3ncnc4sc(Cl)cc34)CC2)ccc1F` [PRX-08066], the remaining activity at 1.25 µM in experiment [1] (Well no.=4792) came out at 101%. Further, the remaining activity at 3.75 µM in experiment [2] (Well no.=4792) was determined as 97.9%.

As to `O=P(O)(O)CP(=O)(O)OC[C@H]1O[C@@H](n2cnc3c(NCc4ccccc4)ncnc32)[C@H](O)[C@@H]1O` [PSB-12379], the remaining activity at 1.25 µM in experiment [1] (Well no.=8745) is 105%. The remaining activity at 3.75 µM in experiment [2] (Well no.=8745) was 105%.

On to `C[C@@]1(F)[C@H](O)[C@@H](CO)O[C@H]1n1ccc(N)nc1=O` [PSI-6130], for which, in experiment [1] (Well no.=7764), the remaining activity at 1.25 µM is 107%. Also, the remaining activity at 3.75 µM in experiment [2] (Well no.=7764) came out at 100%.

As to `C[C@@]1(F)[C@H](O)[C@@H](CO)O[C@H]1n1ccc(=O)[nH]c1=O` [PSI-6206], the remaining activity at 1.25 µM in experiment [1] (Well no.=7710) is 92.6%. Further, the remaining activity at 3.75 µM in experiment [2] (Well no.=7710) is 87.5%.

With `CCCCC1CCC(c2nc(-c3ccncc3)no2)CC1` (stereo not drawn) [PSN-375963], the remaining activity at 1.25 µM in experiment [1] (Well no.=5398) was determined as 106%. For the same compound, in experiment [2] (Well no.=5398), the remaining activity at 3.75 µM turned out to be 106%.

Consider `O=C(Nc1ccc(Cl)cc1)Nc1cccc(-c2cccc(N3CCCC3)n2)c1` [PSNCBAM-1], for which, in experiment [1] (Well no.=5820), the remaining activity at 1.25 µM was determined as 105%. Moreover, the remaining activity at 3.75 µM in experiment [2] (Well no.=5820) was 97%.

On to `Cc1nc2cc(F)c(F)cc2n1-c1cncc(Nc2ccc(C(F)(F)F)cc2)n1` [PTC-028], for which the remaining activity at 1.25 µM in experiment [1] (Well no.=7024) came out at 106%. In addition, the remaining activity at 3.75 µM in experiment [2] (Well no.=7024) amounted to 96.8%.

On to `COc1cc(Br)c(Nc2nc(-c3c(C)nc4ncccn34)cs2)c(Br)c1` [PTC-209], for which the remaining activity at 1.25 µM in experiment [1] (Well no.=5643) came to 94.3%. Moreover, the remaining activity at 3.75 µM in experiment [2] (Well no.=5643) is 95%.

`CC(C)NCCCn1c(Sc2cc3c(cc2I)OCO3)nc2c(N)ncnc21` [PU-H71]: in experiment [1] (Well no.=8772), the remaining activity at 1.25 µM is 98.2%. For the same compound, the remaining activity at 3.75 µM in experiment [2] (Well no.=8772) turned out to be 95.7%.

`COc1ccc(C(C)=O)c(O)c1` [Paeonol]: the remaining activity at 1.25 µM came out at 100% in experiment [1] (Well no.=4045) and 105% in experiment [1] (Well no.=8194). In addition, the results for the remaining activity at 3.75 µM in experiment [2] (Well no.=4045) and in experiment [2] (Well no.=8194) were 101% and 102%, respectively.

Turning to `CC(=O)c1c(C)c2cnc(Nc3ccc(N4CCNCC4)cn3)nc2n(C2CCCC2)c1=O` [Palbociclib (hydrochloride)], the remaining activity at 1.25 µM in experiment [1] (Well no.=7350) was 96.3%. Moreover, the remaining activity at 3.75 µM in experiment [2] (Well no.=7350) was 97.5%.

In the case of `CC(=O)c1c(C)c2cnc(Nc3ccc(N4CCNCC4)cn3)nc2n(C2CCCC2)c1=O` [Palbociclib (isethionate)], the remaining activity at 1.25 µM in experiment [1] (Well no.=7316) came out at 103%. In experiment [2] (Well no.=7316), the remaining activity at 3.75 µM came out at 103%.

With `Cc1nc2n(c(=O)c1CCN1CCC(c3noc4cc(F)ccc34)CC1)CCCC2O` (stereo not drawn) [Paliperidone], the remaining activity at 1.25 µM in experiment [1] (Well no.=8197) came out at 109%. The remaining activity at 3.75 µM in experiment [2] (Well no.=8197) is 99.6%.

For `COc1cc2c(cc1OC)-c1cc3ccc(OC)c(OC)c3c[n+]1CC2` [Palmatine chloride], in experiment [1] (Well no.=3641), the remaining activity at 1.25 µM came to 101%. In addition, the remaining activity at 3.75 µM in experiment [2] (Well no.=3641) was 99.2%.

For the compound `CCCCCCCCCCCCCCCC(=O)O` [Palmitic acid], the remaining activity at 1.25 µM in experiment [1] (Well no.=7077) worked out at 98.9%. Moreover, the remaining activity at 3.75 µM in experiment [2] (Well no.=7077) is 94.2%.

Turning to `CCCCCCCCCCCCCCCC(=O)NCCc1ccc(O)c(O)c1` [Palmitoyl dopamine], the remaining activity at 1.25 µM in experiment [1] (Well no.=4261) was found to be 101%. In experiment [2] (Well no.=4261), the remaining activity at 3.75 µM amounted to 98.2%.

In the case of `COc1ccc(COc2cc3oc(=O)c4cc(C(C)O)ccc4c3cc2OC)cc1` (stereo not drawn) [Palomid 529], the remaining activity at 1.25 µM in experiment [1] (Well no.=4860) was 102%. Also, the remaining activity at 3.75 µM in experiment [2] (Well no.=4860) was found to be 98.2%.

As for `O=C1c2cccc3c2[C@H](CCC3)CN1[C@@H]1CN2CCC1CC2` [Palonosetron (Hydrochloride)], the remaining activity at 1.25 µM in experiment [1] (Well no.=6614) stood at 98.5%. Further, in experiment [2] (Well no.=6614), the remaining activity at 3.75 µM was found to be 98%.

Turning to `O=C1c2cccc3c2[C@H](CCC3)CN1[C@@H]1CN2CCC1CC2` [Palonosetron HCl], in experiment [1] (Well no.=4923), the remaining activity at 1.25 µM was found to be 99.3%. Moreover, in experiment [2] (Well no.=4923), the remaining activity at 3.75 µM is 98.2%.

With `Cc1cc(NC(=O)NCCN2CCC(O)(Cc3ccccc3)CC2)c2ccccc2n1` [Palosuran], the remaining activity at 1.25 µM in experiment [1] (Well no.=7915) is 105%. The remaining activity at 3.75 µM in experiment [2] (Well no.=7915) turned out to be 92.5%.

In the case of `NCCC(O)(P(=O)(O)O)P(=O)(O)O` [Pamidronate Disodium], in experiment [1] (Well no.=4773), the remaining activity at 1.25 µM came out at 96.6%. Moreover, in experiment [2] (Well no.=4773), the remaining activity at 3.75 µM was found to be 97.3%.

`CC1(C)CCC[C@](C)([C@H]2CC[C@]3(C)[C@@H]2[C@H](O)C[C@@H]2[C@@]4(C)CC[C@H](O)C(C)(C)[C@@H]4CC[C@]23C)O1` [Panaxadiol]: the remaining activity at 1.25 µM in experiment [1] (Well no.=3739) came to 100%. Besides, the remaining activity at 3.75 µM in experiment [2] (Well no.=3739) was found to be 99.1%.

With `CC1(C)CCC[C@](C)([C@H]2CC[C@]3(C)[C@@H]2[C@H](O)C[C@@H]2[C@@]4(C)CC[C@H](O)C(C)(C)[C@@H]4[C@@H](O)C[C@]23C)O1` [Panaxatriol], in experiment [1] (Well no.=3699), the remaining activity at 1.25 µM is 94.8%. For the same compound, the remaining activity at 3.75 µM in experiment [2] (Well no.=3699) came out at 101%.

`CC(=O)O[C@H]1C[C@@H]2CC[C@@H]3[C@H](CC[C@@]4(C)[C@H]3C[C@H]([N+]3(C)CCCCC3)[C@@H]4OC(C)=O)[C@@]2(C)C[C@@H]1[N+]1(C)CCCCC1` [Pancuronium bromide]: the remaining activity at 1.25 µM in experiment [1] (Well no.=808) is 98.5%. The remaining activity at 3.75 µM in experiment [2] (Well no.=808) is 97.8%.

For the compound `Cc1[nH]c2ccccc2c1CCNCc1ccc(/C=C/C(=O)NO)cc1` [Panobinostat (LBH589)], in experiment [1] (Well no.=4832), the remaining activity at 1.25 µM was 94.6%. Besides, the remaining activity at 3.75 µM in experiment [2] (Well no.=4832) turned out to be 96.4%.
